Here are results for 24 molecules from US9725445B2, “Cycloalkyl nitrile pyrazolo pyridones as Janus kinase inhibitors” (Merck Sharp & Dohme Corp., priority 2013, dated 2017).

pIC50: −log10 of the molar value.

The target of one experiment is JAK1 (Homo sapiens (Human), UniProt P23458). Put plainly: Jak biochemical HTRF assay, JAK1. The conditions noted are these: HTRF biochemical assay, recombinant GST-tagged catalytic domain; read-out: JAK1 IC50. Background: Time-resolved FRET reads energy transfer from a long-lived donor to a nearby acceptor.
A further experiment deals with JAK2 (Homo sapiens (Human), UniProt O60674). Put plainly: Jak biochemical HTRF assay, JAK2. To be noted: HTRF biochemical assay, recombinant GST-tagged catalytic domain; read-out: JAK2 IC50.
Chain of JAK2 (O60674 849-1124): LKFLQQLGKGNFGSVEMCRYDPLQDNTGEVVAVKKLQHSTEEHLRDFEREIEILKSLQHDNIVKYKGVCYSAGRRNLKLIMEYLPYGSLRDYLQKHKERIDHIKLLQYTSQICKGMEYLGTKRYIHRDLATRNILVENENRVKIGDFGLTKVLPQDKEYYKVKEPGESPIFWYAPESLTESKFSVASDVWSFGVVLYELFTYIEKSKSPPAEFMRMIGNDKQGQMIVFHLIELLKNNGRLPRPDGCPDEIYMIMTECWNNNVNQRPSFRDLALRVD

Chain of JAK1 (P23458 875-1153): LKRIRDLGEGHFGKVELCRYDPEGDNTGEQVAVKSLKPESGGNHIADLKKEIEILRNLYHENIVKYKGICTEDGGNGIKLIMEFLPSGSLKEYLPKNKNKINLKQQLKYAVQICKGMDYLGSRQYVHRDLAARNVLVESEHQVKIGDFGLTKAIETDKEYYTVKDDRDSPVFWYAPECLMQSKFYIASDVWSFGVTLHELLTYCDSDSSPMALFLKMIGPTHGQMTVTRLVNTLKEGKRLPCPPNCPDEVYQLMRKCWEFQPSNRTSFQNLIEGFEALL

On to `N#C[C@H]1CCCC[C@@H]1n1nc(Nc2cccc(Cn3ccnc3)c2)c2c(=O)[nH]ccc21` [Example 3-47, (1S,2S)-2-(3-{[3-(1H-imidazol-1-ylmethyl)phenyl]amino}-4-oxo-4,5-dihydro-1H-pyrazolo[4,3-c]pyridin-1-yl)cyclohexanecarbonitrile], for which the pIC50 was 9.11 on JAK1 and 8.66 at JAK2.

In the case of `CN1Cc2cc(Nc3nn([C@H]4CCCC[C@@H]4C#N)c4cc[nH]c(=O)c34)ccc2S1(=O)=O` [Example 3-49, (1S,2S)-2-{3-[(2-methyl-1,1-dioxido-2,3-dihydro-1,2-benzisothiazol-5-yl)amino]-4-oxo-4,5-dihydro-1H-pyrazolo[4,3-c]pyridin-1-yl}cyclohexanecarbonitrile], the pIC50 at JAK1 is 10.59; on JAK2, 9.54.

In the case of `N#C[C@H]1CCCC[C@@H]1n1nc(Nc2cccc(Cn3cncn3)c2)c2c(=O)[nH]ccc21` [Example 3-50, (1S,2S)-2-(4-oxo-3-{[3-(1H-1,2,4-triazol-1-ylmethyl)phenyl]amino}-4,5-dihydro-1H-pyrazolo[4,3-c]pyridin-1-yl)cyclohexanecarbonitrile], the pIC50 is 9.30 at JAK1 and 8.89 at JAK2.

On to `N#C[C@H]1CCCC[C@@H]1n1nc(Nc2cccc(Cn3cnnc3)c2)c2c(=O)[nH]ccc21` [Example 3-51, (1S,2S)-2-(4-oxo-3-{[3-(4H-1,2,4-triazol-4-ylmethyl)phenyl]amino}-4,5-dihydro-1H-pyrazolo[4,3-c]pyridin-1-yl)cyclohexanecarbonitrile], for which the pIC50 was 9.60 on JAK1 and 8.92 at JAK2.

As for `CC(C)(O)c1cn(Cc2ccc(Nc3nn([C@H]4CCCC[C@@H]4C#N)c4cc[nH]c(=O)c34)cc2)nn1` [Example 3-52, (1S,2S)-2-{3-[(4-{[4-(1-hydroxy-1-methylethyl)-1H-1,2,3-triazol-1-yl]methyl}phenyl)amino]-4-oxo-4,5-dihydro-1H-pyrazolo[4,3-c]pyridin-1-yl}cyclohexanecarbonitrile], the pIC50 at JAK1 is 9.80; at JAK2, 9.39.

In the case of `CC(C)(C)N1Cc2cc(Nc3nn([C@H]4CCCC[C@@H]4C#N)c4cc[nH]c(=O)c34)ccc2S1(=O)=O` [Example 3-53, (1S,2S)-2-{3-[(2-tert-butyl-1,1-dioxido-2,3-dihydro-1,2-benzisothiazol-5-yl)amino]-4-oxo-4,5-dihydro-1H-pyrazolo[4,3-c]pyridin-1-yl}cyclohexanecarbonitrile], the negative logarithm of the IC50 (pIC50) is 10.41 at JAK1 and 9.72 at JAK2.

With `N#C[C@H]1CCCC[C@@H]1n1nc(Nc2ccc3c(c2)CNS3(=O)=O)c2c(=O)[nH]ccc21` [Example 3-54, (1S,2S)-2-{3-[(1,1-dioxido-2,3-dihydro-1,2-benzisothiazol-5-yl)amino]-4-oxo-4,5-dihydro-1H-pyrazolo[4,3-c]pyridin-1-yl}cyclohexanecarbonitrile], the values for the pIC50 on JAK1 and at JAK2 were 10.29 and 9.21, respectively.

Take `N#C[C@H]1CCCC[C@@H]1n1nc(Nc2ccc(CNCC(F)(F)F)cc2)c2c(=O)[nH]ccc21` [Example 3-57, (1S,2S)-2-{4-oxo-3-[(4-{[(2,2,2-trifluoroethyl)amino]methyl}phenyl)amino]-4,5-dihydro-1H-pyrazolo[4,3-c]pyridin-1-yl}cyclohexanecarbonitrile]: the values for the pIC50 at JAK1 and at JAK2 were 9.70 and 9.28, respectively.

For the molecule `N#C[C@H]1CCCC[C@@H]1n1nc(Nc2ccc3c(c2)CN(CC(F)(F)F)S3(=O)=O)c2c(=O)[nH]ccc21` [Example 3-58, (1S,2S)-2-(3-{[1,1-dioxido-2-(2,2,2-trifluoroethyl)-2,3-dihydro-1,2-benzisothiazol-5-yl]amino}-4-oxo-4,5-dihydro-1H-pyrazolo[4,3-c]pyridin-1-yl)cyclohexanecarbonitrile], the pIC50 on JAK1 is 10.30; at JAK2, 9.24.

As for `N#C[C@H]1CCCC[C@@H]1n1nc(Nc2ccc3c(c2)CCS3(=O)=O)c2c(=O)[nH]ccc21` [Example 3-59, (1S,2S)-2-{3-[(1,1-dioxido-2,3-dihydro-1-benzothiophen-5-yl)amino]-4-oxo-4,5-dihydro-1H-pyrazolo[4,3-c]pyridin-1-yl}cyclohexanecarbonitrile], the figures for the negative logarithm of the IC50 (pIC50) at JAK1 and on JAK2 were 10.21 and 9.15, respectively.

Turning to `CCN1Cc2cc(Nc3nn([C@H]4CCCC[C@@H]4C#N)c4cc[nH]c(=O)c34)ccc2S1(=O)=O` [Example 3-60, (1S,2S)-2-{3-[(2-ethyl-1,1-dioxido-2,3-dihydro-1,2-benzisothiazol-5-yl)amino]-4-oxo-4,5-dihydro-1H-pyrazolo[4,3-c]pyridin-1-yl}cyclohexanecarbonitrile], the pIC50 at JAK1 was 10.36; on JAK2 it was 9.39.

Turning to `N#C[C@H]1CCCC[C@@H]1n1nc(Nc2ccc3c(c2)CN(CC(F)(F)F)C3)c2c(=O)[nH]ccc21` [Example 3-61, (1S,2S)-2-(4-oxo-3-{[2-(2,2,2-trifluoroethyl)-2,3-dihydro-1H-isoindol-5-yl]amino}-4,5-dihydro-1H-pyrazolo[4,3-c]pyridin-1-yl}cyclohexanecarbonitrile], the pIC50 was 9.26 on JAK1 and 8.96 on JAK2.

`CC(C)CN1Cc2cc(Nc3nn([C@H]4CCCC[C@@H]4C#N)c4cc[nH]c(=O)c34)ccc2S1(=O)=O` [Example 3-62, (1S,2S)-2-(3-{[2-(2-methylpropyl)-1,1-dioxido-2,3-dihydro-1,2-benzisothiazol-5-yl]amino}-4-oxo-4,5-dihydro-1H-pyrazolo[4,3-c]pyridin-1-yl)cyclohexanecarbonitrile]: the values for the pIC50 on JAK1 and on JAK2 were 10.08 and 9.39, respectively.

Regarding `N#C[C@H]1CCCC[C@@H]1n1nc(Nc2ccc3c(c2)CN(CC2CC2)S3(=O)=O)c2c(=O)[nH]ccc21` [Example 3-63, (1S,2S)-2-(3-{[2-(cyclopropylmethyl)-1,1-dioxido-2,3-dihydro-1,2-benzisothiazol-5-yl]amino}-4-oxo-4,5-dihydro-1H-pyrazolo[4,3-c]pyridin-1-yl)cyclohexanecarbonitrile], the pIC50 on JAK1 is 10.18; on JAK2, 9.27.

For the molecule `CN1Cc2ccc(Nc3nn([C@H]4CCCC[C@@H]4C#N)c4cc[nH]c(=O)c34)cc2C1` [Example 3-64, (1S,2S)-2-{3-[(2-methyl-2,3-dihydro-1H-isoindol-5-yl)amino]-4-oxo-4,5-dihydro-1H-pyrazolo[4,3-c]pyridin-1-yl}cyclohexanecarbonitrile], the values for the pIC50 at JAK1 and on JAK2 were 9.41 and 8.80, respectively.

Take `N#C[C@H]1CCCC[C@@H]1n1nc(Nc2ccc3c(c2)CN(CC2CCCC2)S3(=O)=O)c2c(=O)[nH]ccc21` [Example 3-65, (1S,2S)-2-(3-{[2-(cyclopentylmethyl)-1,1-dioxido-2,3-dihydro-1,2-benzisothiazol-5-yl]amino}-4-oxo-4,5-dihydro-1H-pyrazolo[4,3-c]pyridin-1-yl)cyclohexanecarbonitrile]: the results for the pIC50 on JAK1 and at JAK2 were 9.92 and 9.19, respectively.

Take `C[C@@H](NCC(F)(F)F)c1ccc(Nc2nn([C@H]3CCCC[C@@H]3C#N)c3cc[nH]c(=O)c23)cc1` [Example 3-66, (1S,2S)-2-{4-oxo-3-[(4-{(1R)-1-[(2,2,2-trifluoroethyl)amino]ethyl}phenyl)amino]-4,5-dihydro-1H-pyrazolo[4,3-c]pyridin-1-yl}cyclohexanecarbonitrile]: the pIC50 at JAK1 was 9.70; at JAK2, 9.49.

Consider `Cc1cc(Nc2nn([C@H]3CCCC[C@@H]3C#N)c3cc[nH]c(=O)c23)ccc1C(=O)N(C)C` [Example 3-67, 4-({1-[(1S,2S)-2-cyanocyclohexyl]-4-oxo-4,5-dihydro-1H-pyrazolo[4,3-c]pyridin-3-yl}amino)-N,N,2-trimethylbenzamide], for which the pIC50 at JAK1 was 9.47; at JAK2, 9.37.

Regarding `Cc1cc(Nc2nn([C@H]3CCCC[C@@H]3C#N)c3cc[nH]c(=O)c23)ccc1C(=O)N1CCOCC1` [Example 3-68, (1S,2S)-2-(3-{[3-methyl-4-(morpholin-4-ylcarbonyl)phenyl]amino}-4-oxo-4,5-dihydro-1H-pyrazolo[4,3-c]pyridin-1-yl)cyclohexanecarbonitrile], the pIC50 on JAK1 is 9.33; on JAK2, 9.55.

`CN(C)C(=O)c1ccc(Nc2nn([C@H]3CCCC[C@@H]3C#N)c3cc[nH]c(=O)c23)cc1C1CC1` [Example 3-69, 4-({1-[(1S,2S)-2-cyanocyclohexyl]-4-oxo-4,5-dihydro-1H-pyrazolo[4,3-c]pyridin-3-yl}amino)-2-cyclopropyl-N,N-dimethylbenzamide]: the figures for the pIC50 at JAK1 and at JAK2 were 8.68 and 8.24, respectively.

`C[C@H](NCC(F)(F)F)c1ccc(Nc2nn([C@H]3CCCC[C@@H]3C#N)c3cc[nH]c(=O)c23)cc1` [Example 3-73, (1S,2S)-2-{4-oxo-3-[(4-{(1S)-1-[(2,2,2-trifluoroethyl)amino]ethyl}phenyl)amino]-4,5-dihydro-1H-pyrazolo[4,3-c]pyridin-1-yl}cyclohexanecarbonitrile]: the negative-log IC50 (pIC50) on JAK1 is 9.59; at JAK2, 9.35.

As for `CC(C)N1Cc2ccc(Nc3nn([C@H]4CCCC[C@@H]4C#N)c4cc[nH]c(=O)c34)cc2C1` [Example 3-74, (1S,2S)-2-(3-{[2-(1-methylethyl)-2,3-dihydro-1H-isoindol-5-yl]amino}-4-oxo-4,5-dihydro-1H-pyrazolo[4,3-c]pyridin-1-yl)cyclohexanecarbonitrile], the pIC50 on JAK1 is 9.85; on JAK2, 9.54.

With `CC(C)CN1Cc2ccc(Nc3nn([C@H]4CCCC[C@@H]4C#N)c4cc[nH]c(=O)c34)cc2C1` [Example 3-75, (1S,2S)-2-(3-{[2-(2-methylpropyl)-2,3-dihydro-1H-isoindol-5-yl]amino}-4-oxo-4,5-dihydro-1H-pyrazolo[4,3-c]pyridin-1-yl)cyclohexanecarbonitrile], the pIC50 on JAK1 is 9.55; on JAK2, 9.17.

As to `CCN1Cc2ccc(Nc3nn([C@H]4CCCC[C@@H]4C#N)c4cc[nH]c(=O)c34)cc2C1` [Example 3-76, (1S,2S)-2-{3-[(2-ethyl-2,3-dihydro-1H-isoindol-5-yl)amino]-4-oxo-4,5-dihydro-1H-pyrazolo[4,3-c]pyridin-1-yl}cyclohexanecarbonitrile], the negative logarithm of the IC50 (pIC50) at JAK1 is 9.39; on JAK2 it was 8.68.

For orientation: pIC50 means the negative decadic logarithm of the IC50, by convention in mol/L.
